Reference: patent US7524851B2 (Robert Bosch Gesellschaft fur Medizinische Forschung (RBMF), priority 2003, dated 2009)

Legend:
[1] = tested on: primary CD4+ T lymphocytes; assay: Annexin V/propidium iodide FACS apoptosis of stimulated primary blood CD4+ T lymphocytes; assay type: cell-based, human; conditions: for apoptosis induction during the first 2 days after administration: kinetic studies; for apoptosis of primary blood CD4+ T lymphocytes: day 5
Text: Isolation of primary CD4^+ T lymphocytes and lamina propria cells: Human peripheral blood mononuclear cells (PBMCs) from healthy volunteers (25-42 years of age) and patients with Crohn's disease (31-65 years of age) were isolated using Ficoll-Hypaque gradients. PBMCs were further purified using CD4 monoclonal antibodies attached to immunomagnetic beads according to the manufacturer's protocol, followed by treatment with Detachabead (Dynal; Oslo, Norway). In some cases, CD4^+ T cells were further separated by negative selection techniques using CD45RO or CD45RA monoclonal antibodies (PharMingen; Heidelberg, Germany) and immunomagnetic beads (Dynal). […] Lamina propria mononuclear cells (LPMCs) from patients with IBD were isolated from gut specimens using a short-term (5-minute) digestion protocol with collagenase V, hyaluronidase (Sigma-Aldrich; St. Louis, Mo., USA), and DNase (Roche; Mannheim, Germany), as recently described in detail in Holtmann et al., Eur. J. Immunol. 32:3142-3151 (2002). Briefly, specimens were washed in calcium- and magnesium-free HBSS (HBSS-CMF), cut into 0.5-cm pieces, and incubated twice in HBSS containing EDTA (0.37 mg/ml) and DTT (0.145 mg/ml) at 37° C. for 15 minutes, followed by subsequent digestion for 5 minutes with collagenase V 400 (1 mg/ml), deoxyribonuclease (0.1 mg/ml DNase), and hyaloronidase (0.1 mg/ml) in a shaking incubator at 37° C. The digested tissue was washed twice in RPMI medium containing 10% FCS and centrifuged. The tissue was finally mechanically homogenized (DAKO homogenizer; Hamburg, Germany) for 4 minutes, and cells were filtered through a sterile 40-μm cell strainer (Falcon; San Diego, Calif., USA).
Such CD28 costimulation is known to prevent apoptosis of primary T cells during T cell receptor (TCR) stimulation through activation of bcl-x, and NF-κB (Noel et al., J. Immunol. 157:636-647 (1996); Radvanyi et al., J. Immunol. 156:1788-1798 (1996); Khoshnan et al., J. Immunol. 165:1743-1754 (2000)). […] In addition, recombinant IL-2 (R&D Systems; Wiesbaden, Germany) was used at a final concentration of 40 U/ml in all experiments. Lamina propria T lymphocytes were stimulated with antibodies to CD2 (4 μg/ml; Immunotech; Marseille, France) and CD28 (1 μg/ml). […] To block CD95L-mediated (FasL-mediated) apoptosis, the NOK-1 antibody (4 μg/ml, PharMingen) was used whose Fab fragments bind to human CD95L (FasL) (Jodo et al., J. Immunol. 165:5487-5494 (2000)). Recombinant human FasL (Alexis Biochemicals; Heidelberg, Germany) was used as a positive control for the NOK-1 antibody (10 μg/ml).
For FACS analysis, apoptotic cells were detected by staining with annexin V and propidium iodide using the Annexin V FITC Apoptosis Detection Kit I (PharMingen) (Atreya et al., Nat. Med. 6:583-588 (2000)). In brief, T cells were washed twice in PBS, and the pellet was resuspended in annexin V binding buffer (PharMingen) at a concentration of 10^6 cells per milliliter. Annexin V FITC and propidium iodide were added (5 ill of each per 10^5 cells). Samples were gently mixed and incubated for 15 minutes at room temperature in the dark before FACS analysis. To verify the results obtained with the annexin V/propidium iodide staining, analysis of T cells displaying DNA fragmentation was also determined by the Nicoletti technique, as described in (Nicoletti et al., J. Immunol. Methods 139:271-279 (1991)). 10^6 T cells were fixed in 70% ethanol, washed once in HBSS, resuspended in 1 ml of HBSS and 1 ml of phosphate citric acid buffer (0.2 mol/l Na2PO4 and 0.004 mol/l citric acid [pH 7.8]), and incubated at room temperature for 5 minutes. After centrifugation, cells were resuspended in 1 ml of HBSS containing 20 μg/ml propidium iodide and 10 U DNase-free RNase A and incubated at room temperature for 30 minutes. Finally, cells were analyzed on a FACScan flow cytometer. Because of the fragmentation of DNA, apoptotic cells appear as hypodiploid in the DNA histogram.

[2] = tested on: peripheral blood CD4+ T cells; assay: Apoptotic blood T cells from IBD patients receiving azathioprine/6-MP; assay type: in vivo, human; conditions: for number of apoptotic blood T cells: treated IBD patients vs untreated patients before therapy, cells stimulated with CD28 in culture, P<0.05
Text: FIG. 3. […] (a) LPMCs were isolated and stimulated with anti-CD2/CD28 plus IL-2 in the presence or absence of 6-MP for 5 days followed by FACS analysis. […] Data represent mean values±SEM from eight patients with IBD per group. […] Data are representative of 5-13 patients per group. Magnification, ×20 (bar=100 μm) (ce) and ×40 (bar=50 μm) (f-h). (i) Quantification of the percentage of apoptotic, TUNEL-positive LPMCs in patients with IBD receiving 6-MP as compared with untreated control patients. […] Data are mean values±SEM of 5-13 patients per group.
Isolation of primary CD4^+ T lymphocytes and lamina propria cells: Human peripheral blood mononuclear cells (PBMCs) from healthy volunteers (25-42 years of age) and patients with Crohn's disease (31-65 years of age) were isolated using Ficoll-Hypaque gradients. PBMCs were further purified using CD4 monoclonal antibodies attached to immunomagnetic beads according to the manufacturer's protocol, followed by treatment with Detachabead (Dynal; Oslo, Norway). In some cases, CD4^+ T cells were further separated by negative selection techniques using CD45RO or CD45RA monoclonal antibodies (PharMingen; Heidelberg, Germany) and immunomagnetic beads (Dynal). […] Lamina propria mononuclear cells (LPMCs) from patients with IBD were isolated from gut specimens using a short-term (5-minute) digestion protocol with collagenase V, hyaluronidase (Sigma-Aldrich; St. Louis, Mo., USA), and DNase (Roche; Mannheim, Germany), as recently described in detail in Holtmann et al., Eur. J. Immunol. 32:3142-3151 (2002). […]
For FACS analysis, apoptotic cells were detected by staining with annexin V and propidium iodide using the Annexin V FITC Apoptosis Detection Kit I (PharMingen) (Atreya et al., Nat. Med. 6:583-588 (2000)). […]

[3] = stimulated through the TCR/CD3 complex plus CD28
[4] = stimulated with anti-CD3 antibodies alone

Row | Compound | apoptosis induction during the first 2 days after administration [1] | apoptosis of primary blood CD4+ T lymphocytes [1, 3] | apoptosis of primary blood CD4+ T lymphocytes [1, 4] | further increase in percentage of apoptotic cells on additional 6-MP in vitro ([2]; T cells from 6-MP-treated patients) | number of apoptotic blood T cells [2] | concentration at which T cell apoptosis occurred ([1]; FIGS. 1a and 1b) [µM] | apoptosis of already preactivated T lymphocytes ([1]; drug added at day 5, annexin V/propidium iodide at day 10)
1 | Sc1ncnc2nc[nH]c12 [6-MP, 6-mercaptopurine] | no apoptosis induction | induced apoptosis | no apoptosis | did not cause a further significant increase | significant increase | – | –
2 | Cn1cnc([N+](=O)[O-])c1Sc1ncnc2nc[nH]c12 [azathioprine, Azathioprine] | no apoptosis induction | induced apoptosis | no apoptosis | – | significant increase | 5 | induced apoptosis
